Measured values: patent US20080119457A1, “Benzene, Pyridine, and Pyridazine Derivatives” (SERENEX, INC., priority 2006, published 2008)

These compounds were tested on HSP-90 (heat shock protein 90) (assay: Determination of affinity for HSP-90 (elution from purine affinity column)).
Type: binding
Parameters: key: +++ stands for very high; ++ for high; + for moderate
Description: Affinity of test compounds for HSP-90 is determined as follows: Protein mixtures obtained from a variety of organ tissues (for example: spleen, liver and lung) are reversibly bound to a purine affinity column to capture purine-binding proteins, especially HSP-90. The purine affinity column is washed several times, and then eluted with 20 μM, 100 μM, and 500 μM of test compound. Compounds of Formula I elute HP-90 in a dose-dependent manner vs. a control elution using dimethylsulfoxide. The elution profile of Formula I compounds is determined by 1-dimensional SDS polyacrylamide gel electrophoresis. Gels are stained with a fluorescent stain such as sypro ruby (a highly sensitive fluorescent protein stain that can readily detect less than 1 fmol of total protein, i.e., less than 0.04 ng for a 40 kDa protein) or silver nitrate. The gels are imaged using a standard flat bed gel imager and the amount of protein estimated by densitometry. The percent of HSP-90 protein eluted from the column at each concentration is determined and IC50 values are calculated from these estimates.

| Structure (SMILES) | relative binding affinity to HSP-90 |
| --- | --- |
| CC(=O)c1ccc(-c2ccc(C#N)c(NC3CCC(O)CC3)c2)s1 (centres unmarked) [Compound 23, 4-(5-Acetyl-thiophen-2-yl)-2-(4-hydroxy-cyclohexylamino)-benzonitrile] | ++ |
| Cn1nc(-c2ccc(C(N)=O)c(NC3CCOCC3)c2)c2c1C(=O)CC(C)(C)C2 [Compound 3, 2-(Tetrahydro-pyran-4-ylamino)-4-(1,5,5-trimethyl-7-oxo-4,5,6,7-tetrahydro-1H-indazol-3-yl)-benzamide] | +++ |
| Cc1cc(=O)c2c(C)nn(-c3ccc(C(N)=O)c(NC4CCOCC4)c3)c2o1 [Compound 7, 4-(3,6-Dimethyl-4-oxo-4H-pyrano[2,3-c]pyrazol-1-yl)-2-(tetrahydro-pyran-4-ylamino)-benzamide] | +++ |
| Cc1nn(-c2ccc(C(N)=O)c(NC3CCOCC3)c2)c2nc[nH]c(=O)c12 [Compound 9, 4-(3-Methyl-4-oxo-4,5-dihydro-pyrazolo[3,4-d]pyrimidin-1-yl)-2-(tetrahydro-pyran-4-ylamino)-benzamide] | + |
| Cc1nc(-c2ccc(C#N)c(NC3CCOCC3)c2)n2c1C(=O)CCC2 [Compound 35, 4-(1-methyl-8-oxo-5,6,7,8-tetrahydroimidazo[1,5-a]pyridin-3-yl)-2-(tetrahydro-2H-pyran-4-ylamino)benzonitrile] | +++ |
| COc1cccc2c1ccn2-c1ccc(C#N)c(N[C@H]2CC[C@H](O)CC2)c1 [Compound 21, 2-(4-Hydroxycyclohexylamino)-4-(4-methoxyindol-1-yl)benzonitrile] | +++ |
| NC(=O)c1ccc(-n2ccc3ccccc32)c(Cl)c1 [Compound 46, 3-chloro-4-(1H-indol-1-yl)benzamide] | ++ |
| COc1cc2ccn(-c3ccc(C#N)c(Nc4ccccc4)c3)c2cc1OC [Compound 34, 4-(5,6-dimethoxy-1H-indol-1-yl)-2-(phenylamino)benzonitrile] | + |
| COc1ccc2ccn(-c3ccc(C#N)c(N[C@H]4CC[C@H](O)CC4)c3)c2c1 [Compound 19, 2-(4-Hydroxycyclohexylamino)-4-(6-methoxyindol-1-yl)benzonitrile] | +++ |
| N#Cc1ccc(-c2ccc3n2CCCC3=O)cc1NC1CCC(O)CC1 (centres unmarked) [Compound 51, 2-(4-hydroxycyclohexylamino)-4-(8-oxo-5,6,7,8-tetrahydroindolizin-3-yl)benzonitrile] | +++ |
| COCC(C)Nc1cc(-n2cc(C)c(C(C)=O)c2C)ccc1C(N)=O (centres unmarked) [Compound 47, 4-(3-acetyl-2,4-dimethyl-1H-pyrrol-1-yl)-2-(1-methoxypropan-2-ylamino)benzamide] | ++ |
